Reference: patent US20150231199A1, “PEPTIDES AND THEIR USES” (priority 2012, published 2015)
In brackets after ≈: the same amount, converted by molar mass. Like-named read-outs stand apart in the source and are kept apart here. Marks after values point to notes of the source that are not given here. Positions of bridges follow the written chain, without caps; N, C: chain ends. Residues, ends and D or L forms follow the SMILES beside them. Chains are numbered I, II in the order given. *: point of attachment. Palmitoyl = CCCCCCCCCCCCCCCC(=O)*; Decanoyl = CCCCCCCCCC(=O)*; Octanoyl = CCCCCCCC(=O)*

How the values were obtained:
[1] = in vitro; type: cell-based; conditions: human
Description: The cytotoxicity of individual compounds screened was determined by the lactate dehydrogenase (LDH) assay. In brief, human corneal fibroblast cells were plated at a density of 10,000 cells per well in a 96-well opaque white plate (SPL Life Sciences Inc). Test compounds of various concentrations and controls were added to appropriate wells such that the final volume is 100 μl in each well. After 4 hours of exposure to the test compounds, the plates were removed from 37° C. incubator and equilibrated to 22° C. for 30 minutes. One hundred microliters of Cyto-TOX One reagent (Promega Inc. USA) was added to each well and the LDH assay was performed according to manufacturer's instructions. Fluorescence was assessed at an excitation wavelength of 560 nm and an emission wavelength of 590 nm using a micro-plate reader (Tecan Infinite 200 Pro, Switzerland). The cells exposed to 1% Triton X-100 were used as a positive control and treated as maximum releasing of LDH. The percent specific cytotoxicity of each compound was determined using the formula below (I=intensity):
% Cytotoxicity=[(Iexperiments)−(Inegative controls)]/[Ipositive controls)−(Inegative controls)]×100

[2] = In vivo acute systemic toxicity test; conditions: C57BL6, mouse, mice, read-out: Tolerate concentration
Description: (§1) Wild type C57BL6 (6-8 weeks old) (20-30 gram weigh) mice purchased from National University of Singapore were used for this study. All animals were utilized after 1 week acclimatization and put in air conditioned rooms with controlled temperature (23±2° C.), 12 hours light-dark cycle and humidity (55-60%). All animals were conducted in compliance with the Association for Research in Vision and Ophthalmology (ARVO) statement for the Use of Animals in Ophthalmic, and Vision Research, the guide for the Care and Use of laboratory animals (National Research Council) and under the supervision of Singhealth Experimental Medical Centre (SEMC). To investigate the corneal toxicity, three normal and healthy wild type mice had been chosen randomly and treated with 1 mg/ml and 3 mg/ml of C8V2D in 10 mM PBS. C8V2D was applied topically 5 times/day for 4 days. Cornea clarity had been checked by slit lamp microscopy for everyday follow-up to day 4 after application. To study the acute systemic toxicity, C8V2D was administrated via intravenous and intraperitoneal routes. Two mice have been chosen for each route and moitored carefully through 24 hours to observe and record any mortality, morbidity or toxicity signs. Gross necropsy would be done on any mortality or moribund animal.

[3] = in vitro; type: cell-based; conditions: human; remark: listed apart in the source
Description: Cells were plated at a density of 10,000 cells per well in a 96-well opaque white plate (SPL Life Sciences Inc. Korea). Test compounds of various concentrations and controls were added to appropriate wells such that the final volume is 100 μl in each well. After 4 hours of exposure to the test compounds, the plates were removed from 37° C. incubator and equilibrated to 22° C. for 30 minutes. One hundred microliters of CellTiter-Glo reagent (Promega Inc. USA) was added to each well and the ATP assay was performed according to manufacturer's instructions. Luminescence was assessed using a micro-plate reader (Tecan Infinite 200 Pro, Switzerland). The cells exposed to 1% Triton X-100 were used as a positive control. The percent cell viable of each compound was determined using the formula below (L=Luminescence detected):
% Viability=[(Lnegative controls)−(Lexperiments)]/[(Lnegative controls)−(Lpositive controls)]×100

[4] = system: Escherichia coli ATCC27922; type: cell-based
Description: (§2) V2-dimer and all lipopeptides (FIG. 1A) used in this study were purchased from Mimotopes. All peptides were prepared by dissolving in sterile water to make 1000 μg/mL stock solutions. Minimum Inhibitory Concentration (MIC) determination was carried out in Mueller Hinton Broth (MHB) using the broth macro-dilution method as described by the Clinical and Laboratory Standards Institute (CLSI). Then, cation-adjusted MHB (CA-MHB) was used to prepare serial two fold dilutions of the compounds in test tubes. The concentration of the inoculums suspension was also adjusted to approximately 5×10^5 Colony Forming Units (CFU)/mL using MHB. Bacteria were incubated with the compounds for 24 hours at 35° C. prior to reading. In this study, Gram-positive strains used were Staphylococcus aureus DM4001 and Methicillin-resistant Staphylococcus aureus (MRSA) DM9808. Gram-negative strains used were Klebsiella pneumoniae DM4299, Pseudomonas aeruginosa ATCC23155 and Escherichia coli ATCC27922.

[5] = system: Klebsiella pneumoniae DM4299; type: cell-based
Description: as §2

[6] = system: red blood cells (RBCs) of New Zealand white rabbits; assay: in vitro; type: cell-based, rabbit
Description: (§3) Fresh red blood cells (RBCs) of New Zealand white rabbits were used for this experiment. The RBCs obtained were centrifuged at 3000 rpm for 10 min. Supernatant was removed and washed twice with sterile PBS Buffer (20 mM, 100 mM NaCl, pH 7). The RBCs were further diluted to 8% stock solution in PBS. Peptides were dissolved in PBS with desired stock concentrations. When compounds were mixed with RBCs, desired concentration of 4% RBCs was obtained. For C14V2D and C16V2D, they were dissolved in Dimethylformamide ([…]; DMF) with desired stock concentrations. When compounds were mixed with RBCs, desired concentration of 4% RBCs and 0.5% DMF was obtained. DMF concentration of <1% was used as it had negligible hemolytic activity on RBCs. The mixtures were added to 1.5 mL centrifuge tubes and incubated at 37° C. for 1 h. After incubation, the blood was centrifuged at 3000 rpm for 3 min at 4° C. 100 μL of the supernatant was transferred into transparent 96-well plate. The absorbance was measured at 576 nm using a microplate reader (TECAN Infinite 200M Pro). 2% Triton X-100 was used as positive control. PBS was used as negative controls. The amount of hemoglobin released was calculated using the following equation: […]

[7] = In vivo topical (corneal) toxicity test; conditions: C57BL6, mouse, topical or ocular, mice, 5 times/day for 4 days, read-out: Tolerate concentration
Description: as §1

[8] = system: Staphylococcus aureus; type: cell-based
Description: as §2
(§4) Methods used are as described in Example 1 above.

[9] = system: Methicillin-resistant Staphylococcus aureus (MRSA); type: cell-based
Description: as §2, §4

[10] = system: Pseudomonas aeruginosa; type: cell-based
Description: as §2, §4

[11] = in vitro; type: cell-based, rabbit; conditions: New Zealand white, rabbit, pH 7
Description: as §3

[12] = system: S. aureus (DM4001); assay: Membrane damage, LIVE/DEAD BacLight assay; type: cell-based, Staphylococcus aureus; conditions: FIG. 7
Description: The extent of bacterial membrane damage was assessed using LIVE/DEAD BacLight Bacterial Viability Kit (Molecular Probes, Invitrogen) which utilises both SYTO 9 green-fluorescent nucleic acid stain and the red-fluorescent nucleic acid stain, propidium iodide in their different ability to penetrate healthy bacterial cells. SYTO9 dye could penetrate bacteria with intact and damaged membrane but propidium iodide could only penetrate bacteria with damaged bacteria thereby causing a reduction in the SYTO 9 stain's fluorescence when both dyes are present. Thus, bacteria with intact cell membranes stain fluorescent green whereas bacteria with damaged membranes stain fluorescent red. Briefly, clinical isolate S. aureus (DM4001) was collected at an early exponential growth phase and washed twice with 0.9% saline solution (live culture). A portion of the culture was resuspended in 70% 2-propanol to prepare dead culture with fully permeabilised membrane. […] Using TECAN infinite 200 microplate reader, the wavelength for excitation was fixed at 485 nm to obtain the emission spectrum from 500 nm to 700 nm. The green to red ratio (G/R) was determined using the following formula: [formula] % of membrane damage was quantified using a G/R ratio standard curve generated using bacterial mixture of 0, 10%, 50%, 90% and 100% live culture suspension. […]

[13] = Dissolution in PBS for hemolytic assay; type: physicochemical
Description: as §3

MIC [4] | MIC [5] | MIC [8] | MIC [9] | MIC [10] | HC10 [6] | SMILES | CC50 at 4 h [1] | MTD at 24 h ([2]; Intravenous (i.v.)) | MTD at 24 h ([2]; ip, Intraperitoneal (i.p.)) | CC50 at 4 h [3] | HC10 ([6]; red cells of rabbit, 1 h) | MTD at 96 h [7] | hemolysis at 1 h, 20 mg/mL [11] | membrane integrity [12] | dissolution in PBS [13]
4.80 µM (≈ 12.5 µg/mL) | 2.40 µM (≈ 6.24 µg/mL) | 2.40 µM (≈ 6.24 µg/mL) | 1.20 µM (≈ 3.12 µg/mL) | 2.40 µM (≈ 6.24 µg/mL) | >2000^a ug/mL | CCCCCCCCCC(=O)N[C@@H](CCCNC(=N)N)C(=O)NCC(=O)N[C@@H](CCCNC(=N)N)C(=O)N[C@@H](CCCCN)C(=O)N[C@H](C(=O)N[C@H](C(=O)N[C@@H](CCCNC(=N)N)C(=O)N[C@@H](CCCNC(=N)N)C(=O)NCCCC[C@H](NC(=O)[C@H](CCCNC(=N)N)NC(=O)[C@H](CCCNC(=N)N)NC(=O)[C@@H](NC(=O)[C@@H](NC(=O)[C@H](CCCCN)NC(=O)[C@H](CCCNC(=N)N)NC(=O)CNC(=O)[C@H](CCCNC(=N)N)NC(=O)CCCCCCCCC)C(C)C)C(C)C)C(=O)N[C@@H](CCCCN)C(=O)O)C(C)C)C(C)C [Peptide C10-V2D, (C9H19—CO—NH—RGRKVVRR)2KK] (I: Decanoyl-RGRKVVRRKK-OH / II: Decanoyl-RGRKVVRR; amide I:9-II:C) | – | – | – | – | – | – | 3.3% | – | –
9.03 µM (≈ 19.4 µg/mL) | >36.13 µM | 36.13 µM (≈ 77.4 µg/mL) | 18.07 µM (≈ 38.7 µg/mL) | >36.13 µM | ^c114.0 ± 37.9 ug/mL | CCCCCCCCCCCCCCCC(=O)N[C@@H](CCCNC(=N)N)C(=O)NCC(=O)N[C@@H](CCCNC(=N)N)C(=O)N[C@@H](CCCCN)C(=O)N[C@H](C(=O)N[C@H](C(=O)NCCCC[C@H](NC(=O)[C@@H](NC(=O)[C@@H](NC(=O)[C@H](CCCCN)NC(=O)[C@H](CCCNC(=N)N)NC(=O)CNC(=O)[C@H](CCCNC(=N)N)NC(=O)CCCCCCCCCCCCCCC)C(C)C)C(C)C)C(=O)N[C@@H](CCCCN)C(=O)O)C(C)C)C(C)C [Peptide C16-V2D, (C15H31—CO—NH—RGRKVV)2KK] (I: Palmitoyl-RGRKVVKK-OH / II: Palmitoyl-RGRKVV; amide I:7-II:C; C-terminus assumed) | – | – | – | – | – | – | – | reduced membrane integrity | ^cValue in DMF. C16V2D could not dissolve in PBS.

SMILES | MIC [4] | MIC [5] | MIC [8] | MIC [9] | MIC [10] | HC10 [6] | CC50 at 4 h [1] | MTD at 24 h ([2]; Intravenous (i.v.)) | MTD at 24 h ([2]; ip, Intraperitoneal (i.p.)) | CC50 at 4 h [3] | HC10 ([6]; red cells of rabbit, 1 h) | MTD at 96 h [7] | hemolysis at 1 h, 20 mg/mL [11] | membrane integrity [12] | dissolution in PBS [13]
CCCCCCCC(=O)N[C@@H](CCCNC(=N)N)C(=O)NCC(=O)N[C@@H](CCCNC(=N)N)C(=O)N[C@@H](CCCCN)C(=O)N[C@H](C(=O)N[C@H](C(=O)N[C@@H](CCCNC(=N)N)C(=O)N[C@@H](CCCNC(=N)N)C(=O)NCCCC[C@H](NC(=O)[C@H](CCCNC(=N)N)NC(=O)[C@H](CCCNC(=N)N)NC(=O)[C@@H](NC(=O)[C@@H](NC(=O)[C@H](CCCCN)NC(=O)[C@H](CCCNC(=N)N)NC(=O)CNC(=O)[C@H](CCCNC(=N)N)NC(=O)CCCCCCC)C(C)C)C(C)C)C(=O)N[C@@H](CCCCN)C(=O)O)C(C)C)C(C)C [Peptide C8-V2D, (C7H15—CO—NH—RGRKVVRR)2KK] (I: Octanoyl-RGRKVVRRKK-OH / II: Octanoyl-RGRKVVRR; amide I:9-II:C) | 4.92 µM (≈ 12.5 µg/mL) | 2.46 µM (≈ 6.26 µg/mL) | 2.46 µM (≈ 6.26 µg/mL) | 1.23 µM (≈ 3.13 µg/mL) | 2.46 µM (≈ 6.26 µg/mL) | – | > 3000 µM | 6.25 mg/kg | 100 mg/kg | > 2000 µM | >2000 µg/mL | ≥ 3 mg/kg | – | – | –
